These results are taken from US20210386791A1, “METHODS OF CELLULAR REPROGRAMMING” (TissueTech, Inc., priority 2018, published 2021).

Holding throughout (type): cell-based
In assay [1] the test system is human corneal fibroblasts (HCF). Kind of assay: Timing course analysis of SDF1/CXCR4 and BMP signaling in HCF.
In assay [2] the test system is P10 LNC (human limbal niche cells). In words: P10 LNC on coated MG with soluble HC-HA/PTX3 with or without AMD3100, LDN-193189 or BMP receptor siRNAs. To be noted: for upregulation of CXCR4 transcript by soluble HC-HA/PTX3: with CXCR4 inhibitor. The protocol:
Upon 80% confluence, P10 LNC cultured on coated Matrigel™ (MG) were pre-treated with 0.1% DMSO with or without 20 μg/mL AMD3100 or 100 nM LDN-193189 for 30 min before being trypsinized and seeded at 2×10^5/mL on coated MG in MESCM containing 20 μg/mL of AMD3100 or 100 nM LDN-193189 with 25 μg/mL soluble HC-HA/PTX3 for another 48 h. For the siRNA knockdown, 80% confluent P10 LNC on 6-well coated MG were subjected to transfection by mixing 200 μl of serum-free, antibiotic-free MESCM with 4 μL of HiPerFect siRNA transfection reagent (final dilution, 1:300) and 6 μl of 20 μM of scRNA or siRNAs for BMPR1A, BMPR1B, BMPR2, and ACVR1 at the final concentration of 100 nM, drop-wise, followed by culturing in 1 mL of fresh MESCM at 37° C. for 24 h before soluble HC-HA/PTX3 was added at a final concentration of 25 μg/mL in the MESCM medium.
RNA extract was reverse transcribed to cDNA with reverse-transcribed using High Capacity Reverse Transcription Kit (Applied Biosystems, Foster City, Calif.) using primers listed in Supplementary Table S3. The resultant cDNAs were amplified by specific TaqMan gene expression assay mix and universal PCR master mix in QuantStudio™ 5 Real Time PCR System (ThermoFisher, Santa Clara, Calif.) with real-time RT-PCR profile consisting of 10 min of initial activation at 95° C., followed by 40 cycles of 15 sec denaturation at 95° C., and 1 min annealing and extension at 60° C. The relative gene expression data were analyzed by the comparative CT method (MET). All assays were performed in triplicate. The results were normalized by glyceraldehyde 3-phosphate dehydrogenase (GAPDH) as an internal control.
Single cells of LNC at different passages were harvested with 0.05% trypsin and 1 mM EDTA at 37° C. for 10 min and prepared for cytospin using Cytofuge (StatSpin Inc., Norwood, Mass.) at 1000 rpm for 8 min. Cells were fixed with 4% formaldehyde, pH 7.0, for 15 min at room temperature, permeabilized with 0.2% Triton X-100 in PBS for 15 min and blocked with 2% bovine serum albumin (BSA) for 1 h before incubated with primary antibodies for 16 h at 4° C. After 3 washes with PBS, the corresponding Alexa Fluor-conjugated secondary IgG (all 1:100 dilution) were incubated for 60 min and 3 washing with PBS. After 3 washes with PBS, the second primary antibodies was incubated for 60 min and followed with the corresponding Alex Fluor-conjugated secondary IgG. The nucleus was counterstained with Hoechst 33342 before being analyzed with Zeiss LSM 700 confocal microscope (Carl Zeiss, Thornwood, N.Y.). Corresponding mouse and rabbit sera were used as negative controls for primary monoclonal and polyclonal antibodies, respectively.

Assay [3] concerns human corneal fibroblasts (HCF). Kind of assay: Reversal of HCF to keratocytes on immobilized HC-HA/PTX3 with or without SB431542 or AMD3100. The protocol:
A total of 86 human corneas from individuals aged 18-76 years and maintained at 4° C. in Optisol (Chiron Vision, Irvine, Calif.) for less than 7 days after death were obtained from the Florida Lions Eye Bank (Miami, Fla.) and handled according to the declaration of Helsinki. HCF were isolated and cultured. Briefly, the sheets of the epithelium and the endothelium were removed from corneas, the stroma sections were cut into cubes of approximately 1 mm3, incubated in 2 mg/ml collagenase for 16 h at 37° C., and then placed in a culture medium consisting of DMEM supplemented with 10% fetal bovine serum containing […]. The culture medium was refreshed twice a week. The cells cultured to passage 3 were used for all experiments. To reverse fibroblasts or myofibroblasts into keratocytes, fibroblasts or myofibroblasts were cultured on immobilized HC-HA/PTX3 in DMEM+10% FBS for 3 days using the samples from the cells on plastic and HA as the controls. Some of the cell cultures were extended to up to 7 days of culture to monitor the expression of α-SMA formation. Total RNAs were extracted using RNeasy Mini Kit (Qiagen) and reverse-transcribed using High Capacity Reverse Transcription Kit (Applied Biosystems). cDNA was amplified by real-time RT-PCR using specific primer-probe mixtures and DNA polymerase in Quant Studio 5 Real-time PCR System (Applied Biosystems). Real-time RT-PCR profile consisted of 10 min of initial activation at 95° C., followed by 40 cycles of 15 s denaturation at 95° C., and 1 min annealing and extension at 60° C. The genuine identity of each PCR product was confirmed by the size determination using 2% agarose gels followed by ethidium bromide staining together with PCR marker according to EC3 Imaging System (BioImaging System, Upland, Calif.). The samples of human corneal fibroblasts, myofibroblasts and corneal keratocytes were air-dried and fixed in 4% formaldehyde, pH 7.0, for 15 min at room temperature, rehydrated in PBS, incubated with 0.2% Triton X-100 for 15 min, and rinsed 3 times with PBS for 5 min each. […] After three washes with PBS, they were incubated with corresponding Alexa-Fluor-conjugated secondary IgG (all 1:100 dilution) for 60 min. The samples were then counterstained with Hoechst 33342 and analyzed in Zeiss LSM 700 confocal microscope (Thornhood, N.Y.). Corresponding mouse and rabbit sera were used as negative controls for primary monoclonal and polyclonal antibodies, respectively. Cell lysates were prepared in RIPA buffer and resolved on 4-15% (w/v) gradient acrylamide gels under denaturing and reducing conditions for Western blotting. The protein extracts were transferred to the nitrocellulose membrane, which was then blocked with 5% (w/v) fat-free milk in TBST [50 mM Tris-HCl, pH 7.5, 150 mM NaCl, 0.05% (v/v) Tween-20], followed by sequential incubation with the specific primary antibody against keratocan and its respective horseradish peroxidase (HRP)-conjugated secondary antibody using β-actin as the loading control. Immunoreactive proteins were detected with Western Lighting Chemiluminescence (PerkinElmer, Waltham, Mass.).

The test system is the same in assay [4]. Kind of assay: P3 HCF on plastic with or without immobilized HA or HC-HA/PTX3, with or without TGFβ1: mRNA, ELISA, Western blot, immunostaining. To be noted: with TGFβ1. The method, then: A total of 89 human corneas from individuals aged 18-76 years and maintained at 4° C. in Optisol (Chiron Vision, Irvine, Calif.) for less than 7 days after death were obtained from the Florida Lions Eye Bank (Miami, Fla.) and handled according to the declaration of Helsinki. HCF were isolated and cultured. Epithelial and endothelial cells were removed from corneas, the stroma was cut into cubes of approximately 1 mm^3, incubated in 2 mg/ml collagenase for 16 h at 37° C., and then placed in a culture medium consisting of Dulbecco's modified Eagle's medium (DMEM) supplemented with 10% fetal bovine serum containing […]. The culture medium was changed twice a week. The morphology of the cells was monitored by Nikon Eclipse TS 100 microscope (Melville, N.Y.). Cells cultured to passage 3 (P3) were used for all experiments.
Human corneal fibroblasts (P3) were seeded on plastics with or without immobilized HC-HA/PTX3 complex for 72 h in DMEM+10% FBS, then serum starved for 24 h and treated with or without TGFβ1 for 24 h before being harvested for mRNA quantitation or immunostaining. For determination of protein of TGFβ receptor or p75NTR, the cells were treated with or without TGF-β1 for 48 h before collection of protein samples because the protein expression lags behind mRNA expression. For TGF-β1 ELISA, the cells were treated with or without TGF-β1 for 24 h, and then cultured in the fresh medium for another 24 h. The supernatants were collected for TGFβ1 ELISA. For TGFβ2 and TGFβ3 ELISA, the cells were treated with or without TGFβ1 for 48 h. Certain HCF were seeded on glass in DMEM+10% FBS for 24 h, then in DMEM+ITS (insulin-transferrin-selenium) for 24 h, treated with/without PBS or hyaluronic acid (HA) or HC-HA/PTX3±TGFβ1 (10 ng/ml)±Marimastat (10 μM) or ±DAPT (10 μM) or ±both for 0, 5, 15, 30 and 45 minutes before being harvested for immunostaining of CD44-ICD, JNK1, Cyclin D1 and p75NTR and for 5 minutes before being harvested for Western blotting of cytoplasmic and nuclear CD44-ICD, active MT1-MMP, and active γ-secretase after compartmental separation of the cellular components.
Total RNAs were extracted using RNeasy Mini Kit and were reverse transcribed using High Capacity Reverse Transcription Kit (Applied Biosystems). cDNA obtained was amplified by real-time RT-PCR using specific primer-probe mixtures and DNA polymerase in 7000 Real-time PCR System (Thermo-Fisher Scientific, Carlsbad, Calif.). Real-time RT-PCR profile consisted of 10 minutes of initial activation at 95° C., followed by 40 cycles of 15 seconds denaturation at 95° C., and 1 min annealing and 1 min extension at 60° C. The genuine identity of each PCR product was confirmed by the size determination using 2% agarose gels followed by ethidium bromide staining together with PCR marker according to EC3 Imaging System (BioImaging System, Upland, Calif.).
The Quantikine Human ELISA Kits of TGFβs were used for determination of TGFβs following the manufacturer's instructions (R and D Systems, Minneapolis, Minn.).
HCF, induced human corneal endothelial cells (HCEC), and HCEC monolayer cultures were air-dried and fixed in 4% formaldehyde, pH 7.0, for 15 min at room temperature, rehydrated in PBS, incubated with 0.2% Triton X-100 for 15 min, and rinsed three times with PBS for 5 min each. After incubation with 2% BSA to block non-specific staining for 30 min, they were incubated with the desired first antibody (all at 1:50 dilution) for 16 h at 4° C. After three washes with PBS, they were incubated with corresponding Alexa-Fluor-conjugated secondary IgG (all 1:100 dilutions) for 60 min. The samples were then counterstained with Hoechst 33342 and analyzed with Zeiss LSM 700 confocal microscope (Thornhood, N.Y.). Corresponding mouse and rabbit sera were used as negative controls for primary monoclonal and polyclonal antibodies, respectively. […]
(In general: In an ELISA, binding on a coated surface is turned into a signal by an enzyme label.)

Where [5] appears, read: soluble HC-HA/PTX3 with AMD3100.
Setting [6] is: HCF on HC-HA/PTX3 with CXCR4 inhibitor.

For `c1cc(CN2CCCNCCNCCCNCC2)ccc1CN1CCCNCCNCCCNCC1` [AMD3100], in assay [1] (with AMD3100), the “aggregation and expression of SDF1, CXCR4, BMP4 and BMP6 induced by HC-HA/PTX3” value is reported as “completely blocked”; the “nuclear translocation of CXCR4 and pSMAD1/5” value is “eliminated”. For the same molecule, the “immunostaining of SDF-1” value in assay [2] (after addition of AMD3100) is “became negative”. Further, in assay [2] (setting [5]), the “Pax6, p75NTR, NGF, Musashi-1, Msx-1 and FoxD3 transcripts” value is listed as “significant downregulation”; the “immunofluorescence staining pattern of CXCR4” value is recorded as “reverted to that of 3D MG”; the “staining of pSmad1/5/8” value was “deactivated to cytoplasmic staining”. Moreover, the “transcript levels of BMP2, BMP4 and BMP6” value in assay [2] (soluble HC-HA/PTX3 with AMD3100, throughout 48 h) is “aborted”. Also, in assay [2] (with AMD3100), the “nuclear Pax6 staining promoted by soluble HC-HA/PTX3” value is recorded as “aborted”. Also, in assay [2] (with AMD3100 20 μg/mL, 60 min), the “cell aggregation promoted by soluble HC-HA/PTX3” value is reported as “completed aborted”. In assay [2] (with AMD3100, 24 h), the “upregulation of SDF-1 transcript by soluble HC-HA/PTX3” value was “completely abolished”. In addition, the “upregulation of CXCR4 transcript by soluble HC-HA/PTX3” value in assay [2] (24 h) is “significantly downregulated”. In addition, the “upregulation of CXCR4 transcript by soluble HC-HA/PTX3” value in assay [2] (48 h) was “completely aborted”. Besides, in assay [3] (setting [6]), the “cell aggregation, mRNA overexpression of SDF1 and CXCR4, CXCR4 nuclear translocation” value is “completely attenuated”; the keratocan protein expression result is listed as “blockade”; the “transcript expression of BMP4, BMP6, BMPR1A, BMPR1B, BMPR2 and nuclear translocation of pSMAD1/5” value was “completely nullified”.

For the molecule `c1ccc2c(-c3cnn4cc(-c5ccc(N6CCNCC6)cc5)cnc34)ccnc2c1` [LDN-193189], the “transient nuclear translocation of CXCR4 and nuclear Pax6 staining” value in assay [2] (BMP signaling suppressed) is listed as “not affected”. In addition, the “cell aggregation by soluble HC-HA/PTX3” value in assay [2] (BMP signaling suppressed, compared to scRNA control) is reported as “not affect”. Also, the “expression level of CXCR4 and SDF-1” value in assay [2] (BMP signaling suppressed, throughout 48 h) is listed as “no significant difference”.

On to `NC(=O)c1ccc(-c2nc(-c3ccc4c(c3)OCO4)c(-c3ccccn3)[nH]2)cc1` [SB431542], for which the “aggregation, expression of SDF1 and CXCR4 and nuclear translocation of CXCR4” value in assay [1] (HC-HA/PTX3 with SB431542) is “did not affect”. In addition, the “expression of BMP4 and BMP6 and nuclear translocation of pSMAD1/5 induced by HC-HA/PTX3” value in assay [1] (with SB431542) was “completely inhibited”. In assay [3] (HCF on HC-HA/PTX3 with BMP inhibitor), the “BMP signaling and keratocan mRNA and protein expression” value was “completely inhibited”.

Consider “TGFβ1: exogenous transforming growth factor β1, 10 ng/ml challenge”, for which the “NC marker mRNA, p75NTR protein and p75NTR nuclear translocation” value in assay [4] is on record as “upregulated on plastic”.
